Results: patent US9701729B2, “Peptide having 5 linked CTL epitopes” (TAIHO PHARMACEUTICAL CO., LTD., priority 2013, dated 2017)

Assays:
[1] = test system: CTL epitope peptide specific IgG antibody; test: Measurement of CTL-epitope specific IgG antibody titer in mouse serum (peptide-immobilized beads, Bio-Plex); assay type: in vivo, CBF1 mice (C57BL/6×Balb/c F1); conditions: emulsion with IFA, 100 μl weekly, three times; serum 1 week after final administration; compared with the IFA group
Experimental: Peptides were immobilized onto xMAP Multi-Analyte COOH Microspheres (Luminex Corporation; hereafter referred to as “beads”) in the manner described below. The beads were washed with MES buffer (0.1 M MES-NaOH; pH 7.0), the supernatant was removed by centrifugation. This washing process was repeated twice and the beads were then suspended in 75 μl of MES buffer. 100 μl of CTL epitope peptide solution (1 mg/ml), and 5 μl of 10 mg/ml EDC (1-ethyl-3-(3-dimethylaminopropyl)carbodiimide hydrochloride) solution was added into beads suspension then mixed well. Thereafter, the reaction was performed at 30° C. in the dark overnight. After the removal of supernatant by centrifugation on the following day, 125 μl of 1 M Tris-HCl was added, and incubation was carried out at 30° C. in the dark for 30 minutes. After the supernatant was removed again, the beads were washed twice with wash buffer (PBS(-), 0.05% Tween 20) and were suspended in Immunoblock (DS Pharma Biomedical Co., Ltd.). […]
The CTL epitope peptide-immobilized beads diluted with Immunoblock were dispensed into wells of a 96-well filter plate. […] After the three times of plate washing with a wash buffer, 100 μl of wash buffer was added into each well to suspend beads, and the mean fluorescence intensity of PE which specifically bound to relevant beads was measured using the Bio-Plex Suspension Array System (BIO-RAD). […]

[2] = test system: CTL epitope peptide specific CTL; test: Induction of epitope peptide specific CTLs in mouse model, detection by IFN-γ ELISPOT; assay type: in vivo, mice (HLA-A2.1 transgenic and HLA-A24 transgenic mice); conditions: emulsion with IFA, 100 μl weekly at base of tail, twice; inguinal lymph node cells 1 week after final administration; positive = spots significantly above negative control peptide (p<0.05)
Experimental: The peptides having 5 linked epitopes were dissolved in Otsuka distilled water (Otsuka Pharmaceutical Factory Inc.) at 2 mg/ml or 4 mg/ml, and the resulting solution was filled into the B Braun Injekt syringe. After the equivalent amount of Incomplete Freund's adjuvant (IFA) was filled into another syringe, these syringes were connected to each other using a GP syringe connector, and a solution of the peptides having 5 linked epitopes was thoroughly mixed with IFA to prepare an emulsion. The emulsion was weekly administered in amounts of 100 μl each in the vicinity of base of tail of mice (HLA-A2.1 transgenic and HLA-A24 transgenic mice (Taconic)), and administrations were carried out twice in total. Inguinal lymph nodes were corrected from mice 1 week after the final administration. […] The number of IFN-γ-producing cell spots was quantified using an ELISPOT analyzer (Immunospot S6, Cellular Technology Ltd.). […]

Row | Substance | induction of CTL epitope specific IgG antibody production [1] | number of types of CTL epitope peptide specific CTLs induced [2]
1 | PEP2-RR-PEP3-RR-PEP4-RR-PEP5-RR-PEP7 (ASLDSDPWVRRLLQAEAPRLRRDYSARWNEIRRVYDYNCHVDLRRQIRPIFSNR) [TPV17] | multiple CTL epitope specific IgG antibodies production was not induced | 
2 | PEP7-RR-PEP2-RR-PEP5-RR-PEP3-RR-PEP4 (QIRPIFSNRRRASLDSDPWVRRVYDYNCHVDLRRLLQAEAPRLRRDYSARWNEI) [TPV18] |  | no more than two CTLs induced
